# Laboratory results reported in patent US9738634B2, “Heterocyclic amide compound and herbicide” (SYNGENTA PARTICIPATIONS AG, priority 2013, dated 2017).
# Assays:
# Assay type in all cases: in vivo
# barnyard grass [1] = test: Test Example 2: weedkilling efficacy, growth period weed treatment in the submerged state; A: barnyard grass
# Procedure: (§1) Weedkilling efficacy test on growth period weed treatment in the submerged state
# (§2) Alluvial soil was introduced into 1/10,000 Are Wagner pots, and 4 cm depth submerged conditions were created by addition of water and mixing. Seeds of barnyard grass, bulrush and oval-leafed pondweed were mixed and sown into the aforesaid cups, and the plants were grown by placing in a greenhouse at 25 to 30° C. When the barnyard grass, bulrush and oval-leafed pondweed had reached the 1-2 leaf stage, emulsions of compounds of the present invention prepared according to compounding example 2 were diluted with water to give the specified dosages and applied onto the water surface. 3 weeks after the pesticide treatment the effect on each type of plant was investigated on the basis of the assessment criteria of test example 1.
# (§3) A: barnyard grass, B: bulrush, C: oval-leafed pondweed, D: crabgrass, E: green foxtail, F: barnyard grass, G: wild oat, H: black-grass, I: Italian ryegrass, J: common wind-grass, K: Indian mallow, L: redroot pigweed, M: fig-leafed goosefoot, N: chickweed, O: catchweed, p: birds-eye speedwell, a: transplanted rice, b: directly sown rice, c: corn, d: soybean, e: wheat, f: beet, g: rapeseed
# (§4) Further, pesticide dosage (g/ha) indicates the concentration regulated such that treatment was with only the stated number of grams (g), when calculated per hectare (ha).
# bulrush [2] = test: Test Example 2: weedkilling efficacy, growth period weed treatment in the submerged state; B: bulrush
# Procedure: as §1, §2, §3, §4
# oval-leafed pondweed [3] = test: Test Example 2: weedkilling efficacy, growth period weed treatment in the submerged state; C: oval-leafed pondweed
# Procedure: as §1, §2, §3, §4
# transplanted rice = test: Test Example 1: preemergent weed treatment in the submerged state, effect on crop; a: transplanted rice
# From the text: (§5) Weedkilling efficacy test on preemergent weed treatment in the submerged state
# (§6) Alluvial soil was introduced into 1/10,000 Are Wagner pots, and 4 cm depth submerged conditions were created by addition of water and mixing. Seeds of barnyard grass, bulrush and oval-leafed pondweed were mixed and sown into the aforesaid cups, then 2.5 leaf stage rice seedlings were transplanted. On the sowing day, emulsions of compounds of the present invention prepared according to compounding example 2 were diluted with water to give the specified dosages and applied onto the water surface. The plants were grown after placing the cups in a greenhouse at 25 to 30° C. 3 weeks after the pesticide treatment the effect on each type of plant was investigated on the basis of the following assessment criteria.
# as §3, §4
# oval-leafed pondweed [4] = test: Test Example 1: weedkilling efficacy, preemergent weed treatment in the submerged state; C: oval-leafed pondweed
# From the text: as §5, §6, §3, §4
# bulrush [5] = test: Test Example 1: weedkilling efficacy, preemergent weed treatment in the submerged state; B: bulrush
# From the text: as §5, §6, §3, §4
# barnyard grass [6] = test: Test Example 1: weedkilling efficacy, preemergent weed treatment in the submerged state; A: barnyard grass
# From the text: as §5, §6, §3, §4
SMILES,A (barnyard grass) weedkilling efficacy grade (barnyard grass [1]; treatment dosage 320 g/ha),B (bulrush) weedkilling efficacy grade (bulrush [2]; treatment dosage 320 g/ha),C (oval-leafed pondweed) weedkilling efficacy grade (oval-leafed pondweed [3]; treatment dosage 320 g/ha),"a: transplanted rice, effect on crop grade (transplanted rice; treatment dosage 320 g/ha)","C: oval-leafed pondweed, weed kill grade (oval-leafed pondweed [4]; treatment dosage 320 g/ha)","B: bulrush, weed kill grade (bulrush [5]; treatment dosage 320 g/ha)","A: barnyard grass, weed kill grade (barnyard grass [6]; treatment dosage 320 g/ha)",A (barnyard grass) weedkilling efficacy grade (barnyard grass [1]; treatment dosage 252 g/ha),B (bulrush) weedkilling efficacy grade (bulrush [2]; treatment dosage 252 g/ha),C (oval-leafed pondweed) weedkilling efficacy grade (oval-leafed pondweed [3]; treatment dosage 252 g/ha),"a: transplanted rice, effect on crop grade (transplanted rice; treatment dosage 252 g/ha)","C: oval-leafed pondweed, weed kill grade (oval-leafed pondweed [4]; treatment dosage 252 g/ha)","B: bulrush, weed kill grade (bulrush [5]; treatment dosage 252 g/ha)","A: barnyard grass, weed kill grade (barnyard grass [6]; treatment dosage 252 g/ha)",also measured
CC(C)(C(=O)Nc1ncc([N+](=O)[O-])s1)N1COCN(c2ccccc2)C1=O [A-1-09],"4 (weed kill ratio 70% or more, less than 90%)","5 (weed kill ratio 90% or more, (practically complete withering))","5 (weed kill ratio 90% or more, (practically complete withering))",0 (weed kill ratio 5% or less (practically no effect)),"4 (weed kill ratio 70% or more, less than 90%)","5 (weed kill ratio 90% or more, (practically complete withering))","5 (weed kill ratio 90% or more, (practically complete withering))",,,,,,,,
CC(C)(C(=O)Nc1nnc(C(F)(F)F)s1)N1COCN(c2ccccc2)C1=O [A-1-14],"2 (weed kill ratio 20% or more, less than 40%)","5 (weed kill ratio 90% or more, (practically complete withering))","2 (weed kill ratio 20% or more, less than 40%)","1 (weed kill ratio 5% or more, less than 20%)","3 (weed kill ratio 40% or more, less than 70%)","5 (weed kill ratio 90% or more, (practically complete withering))","4 (weed kill ratio 70% or more, less than 90%)",,,,,,,,
CC(C)(C(=O)Nc1cc(OC(F)F)ccn1)N1COCN(c2ccccc2)C1=O [A-2-53],"5 (weed kill ratio 90% or more, (practically complete withering))","5 (weed kill ratio 90% or more, (practically complete withering))","5 (weed kill ratio 90% or more, (practically complete withering))","1 (weed kill ratio 5% or more, less than 20%)","5 (weed kill ratio 90% or more, (practically complete withering))","5 (weed kill ratio 90% or more, (practically complete withering))","5 (weed kill ratio 90% or more, (practically complete withering))",,,,,,,,
CC(C)(C(=O)Nc1cccc(-c2ccccc2)n1)N1COCN(c2ccccc2)C1=O [A-2-50],,,,,,,,"4 (weed kill ratio 70% or more, less than 90%)","4 (weed kill ratio 70% or more, less than 90%)","3 (weed kill ratio 40% or more, less than 70%)",0 (weed kill ratio 5% or less (practically no effect)),"5 (weed kill ratio 90% or more, (practically complete withering))","5 (weed kill ratio 90% or more, (practically complete withering))","5 (weed kill ratio 90% or more, (practically complete withering))",
CC(C)(C(=O)Nc1ccnc(C(F)(F)F)c1)N1COCN(c2ccccc2)C1=O [A-4-06],,,,,,,,"4 (weed kill ratio 70% or more, less than 90%)","5 (weed kill ratio 90% or more, (practically complete withering))","4 (weed kill ratio 70% or more, less than 90%)",0 (weed kill ratio 5% or less (practically no effect)),"5 (weed kill ratio 90% or more, (practically complete withering))","5 (weed kill ratio 90% or more, (practically complete withering))","5 (weed kill ratio 90% or more, (practically complete withering))",
CC(C)(C(=O)Nc1cnc(Cl)c(Cl)c1)N1COCN(c2ccccc2)C1=O [A-3-05],"4 (weed kill ratio 70% or more, less than 90%)","5 (weed kill ratio 90% or more, (practically complete withering))","5 (weed kill ratio 90% or more, (practically complete withering))",0 (weed kill ratio 5% or less (practically no effect)),"5 (weed kill ratio 90% or more, (practically complete withering))","5 (weed kill ratio 90% or more, (practically complete withering))","3 (weed kill ratio 40% or more, less than 70%)",,,,,,,,
CC(C)(C(=O)Nc1cc(Oc2ccccc2)ccn1)N1COCN(c2ccccc2)C1=O [A-2-55],,,,,,,,,,,,,,,"A (barnyard grass) weedkilling efficacy grade (barnyard grass [1]; treatment dosage 234 g/ha): 0 (weed kill ratio 5% or less (practically no effect)); B (bulrush) weedkilling efficacy grade (bulrush [2]; treatment dosage 234 g/ha): 2 (weed kill ratio 20% or more, less than 40%); C (oval-leafed pondweed) weedkilling efficacy grade (oval-leafed pondweed [3]; treatment dosage 234 g/ha): 5 (weed kill ratio 90% or more, (practically complete withering)); a: transplanted rice, effect on crop grade (transplanted rice; treatment dosage 234 g/ha): 0 (weed kill ratio 5% or less (practically no effect)); C: oval-leafed pondweed, weed kill grade (oval-leafed pondweed [4]; treatment dosage 234 g/ha): 5 (weed kill ratio 90% or more, (practically complete withering)); B: bulrush, weed kill grade (bulrush [5]; treatment dosage 234 g/ha): 5 (weed kill ratio 90% or more, (practically complete withering)); A: barnyard grass, weed kill grade (barnyard grass [6]; treatment dosage 234 g/ha): 5 (weed kill ratio 90% or more, (practically complete withering))"
CC(C)(C(=O)Nc1cc(Cl)cnc1Br)N1COCN(c2ccccc2)C1=O [A-3-08],,,,,,,,"2 (weed kill ratio 20% or more, less than 40%)","3 (weed kill ratio 40% or more, less than 70%)","2 (weed kill ratio 20% or more, less than 40%)",0 (weed kill ratio 5% or less (practically no effect)),"4 (weed kill ratio 70% or more, less than 90%)","5 (weed kill ratio 90% or more, (practically complete withering))","5 (weed kill ratio 90% or more, (practically complete withering))",
Cc1ccc(N2COCN(C(C)(C)C(=O)Nc3cc(Cl)cc(Cl)n3)C2=O)cc1 [A-6-12],"4 (weed kill ratio 70% or more, less than 90%)","5 (weed kill ratio 90% or more, (practically complete withering))","5 (weed kill ratio 90% or more, (practically complete withering))","2 (weed kill ratio 20% or more, less than 40%)","5 (weed kill ratio 90% or more, (practically complete withering))","5 (weed kill ratio 90% or more, (practically complete withering))","5 (weed kill ratio 90% or more, (practically complete withering))",,,,,,,,
CC1=C(c2ccccc2)C(=O)N(C(C)(C)C(=O)Nc2cccc(-c3ccccc3)n2)CO1 [B-2-60],,,,,,,,"4 (weed kill ratio 70% or more, less than 90%)","3 (weed kill ratio 40% or more, less than 70%)","3 (weed kill ratio 40% or more, less than 70%)",,,,,"a (transplanted rice) effect on crop grade (transplanted rice; treatment dosage 252 g/ha): 0 (weed kill ratio 5% or less (practically no effect)); C (oval-leafed pondweed) weedkilling efficacy grade (oval-leafed pondweed [4]; treatment dosage 252 g/ha): 5 (weed kill ratio 90% or more, (practically complete withering)); B (bulrush) weedkilling efficacy grade (bulrush [5]; treatment dosage 252 g/ha): 5 (weed kill ratio 90% or more, (practically complete withering)); A (barnyard grass) weedkilling efficacy grade (barnyard grass [6]; treatment dosage 252 g/ha): 5 (weed kill ratio 90% or more, (practically complete withering))"
CCOc1cc(C(F)(F)F)cc(NC(=O)C(C)(C)N2COCN(c3ccccc3)C2=O)n1 [A-2-60],"5 (weed kill ratio 90% or more, (practically complete withering))","5 (weed kill ratio 90% or more, (practically complete withering))","5 (weed kill ratio 90% or more, (practically complete withering))","2 (weed kill ratio 20% or more, less than 40%)","5 (weed kill ratio 90% or more, (practically complete withering))","5 (weed kill ratio 90% or more, (practically complete withering))","5 (weed kill ratio 90% or more, (practically complete withering))",,,,,,,,
CC(C)(C(=O)Nc1cc(Cl)cnc1Cl)N1COCN(c2ccccc2)C1=O [A-3-06],,,,,,,,"3 (weed kill ratio 40% or more, less than 70%)","4 (weed kill ratio 70% or more, less than 90%)","2 (weed kill ratio 20% or more, less than 40%)","1 (weed kill ratio 5% or more, less than 20%)","4 (weed kill ratio 70% or more, less than 90%)","5 (weed kill ratio 90% or more, (practically complete withering))","5 (weed kill ratio 90% or more, (practically complete withering))",
